Measurements: US10172953B2, “XTEN conjugate compositions and methods of making same” (Amunix Operating Inc., priority 2012, dated 2019)
Read-outs that look alike come from different tables or passages of the source. Square brackets hold non-standard residues; d marks the D form. Peptide text beside a SMILES is read from it. * marks the point of attachment. Dolaproine = CO[C@@H]([C@@H]1CCCN1)[C@@H](C)C(=O)O; Dil = CC[C@H](C)[C@H](NC)[C@@H](CC(=O)O)OC; X1 = C[C@@H](N*)[C@@H](O)c1ccccc1; NMeV = CN[C@H](C(=O)O)C(C)C

How the values were obtained:
[1] = system: folate receptor-positive KB cell line; assay: CellTiter-Glo anti-proliferation assay on KB cells; type: cell-based; conditions: absence of folic acid competitor, read-out: IC50 (cell killing)
Experimental: The ability to selectively target and kill cells bearing folate receptors was evaluated. Test articles of free MMAE, a non-targeting 3×MMAE-XTEN conjugate (XTEN linked to toxin) and the folate receptor-targeted 3×FA(γ),3×MMAE-XTEN conjugate were evaluated in a CellTiter-Glo anti-proliferation assay using the folate receptor-positive KB cell line. As culture media contain high folic acid content, KB cells were grown in folic acid-free media containing 10% heat-inactivated fetal calf serum at 37° C., 5% C02 for at least 7 days prior to the commencement of the cell viability experiment, This medium was also utilized for the execution of the experiment. In brief, KB cells were plated at 10,000 cells per well onto a 96-well microtiter assay plate. KB cells were allowed to adhere to the plate by an overnight incubation at 37° C., 5% CO2. The spent media was then removed and wells designated to contain folic acid competitor received assay medium containing folic acid, while wells not designated to have folic acid competitor received assay medium only. The plate was incubated for 30 min at 37° C., 5% CO2 before the assay media was aspirated and plate washed with assay media. […] After the appropriate incubation period, CellTiter-Glo reagent was added and the plate was read on a luminometer. The IC50 of each test article was determined using a 4 parameter logistic curve fit using GraphPad Prism.

[2] = unmodified peptide/protein, humans/patients; cited from earlier work
[3] = cited from earlier work
[4] = unmodified peptide (GLP-1: biological half-life); cited from earlier work
[5] = rats, intravenous administration; cited from earlier work
[6] = biological target: human recombinant GLP-2 glucagon family receptor (human) (UniProt O95838); assay: cell-based or functional assay
Chain of UniProt O95838 (O95838 whole entry): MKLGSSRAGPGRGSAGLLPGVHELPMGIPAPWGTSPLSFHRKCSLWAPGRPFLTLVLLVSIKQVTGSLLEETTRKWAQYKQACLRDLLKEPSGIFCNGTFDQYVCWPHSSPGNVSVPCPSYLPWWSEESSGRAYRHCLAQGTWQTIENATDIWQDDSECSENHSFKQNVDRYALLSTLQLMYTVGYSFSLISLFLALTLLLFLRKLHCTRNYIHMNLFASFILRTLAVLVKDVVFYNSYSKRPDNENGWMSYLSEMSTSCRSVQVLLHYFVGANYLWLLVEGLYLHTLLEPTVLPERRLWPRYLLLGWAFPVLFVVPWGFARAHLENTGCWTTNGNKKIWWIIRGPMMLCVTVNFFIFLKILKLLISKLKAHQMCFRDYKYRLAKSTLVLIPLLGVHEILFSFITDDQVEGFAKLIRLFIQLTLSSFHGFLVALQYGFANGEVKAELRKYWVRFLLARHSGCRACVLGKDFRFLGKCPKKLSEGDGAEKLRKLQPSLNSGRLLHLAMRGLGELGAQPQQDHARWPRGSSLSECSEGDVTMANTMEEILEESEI

CC[C@H](C)[C@@H]([C@@H](CC(=O)N1CCC[C@H]1[C@H](OC)[C@@H](C)C(=O)N[C@H](C)[C@@H](O)c1ccccc1)OC)N(C)C(=O)[C@@H](NC(=O)[C@@H](NC)C(C)C)C(C)C [MMAE, monomethyl auristatin E] (H-[NMeV]V[Dil][Dolaproine]-X1)
IC50 [1]: 0.8 nM

CC(C)[C@H]1C(=O)N[C@@H](CCCN=C(N)N)C(=O)NCC(=O)N[C@@H](CC(=O)O)C(=O)N[C@H](Cc2ccccc2)C(=O)N1C [cilengitide, 2-[(2S,5R,8S,11S)-5-benzyl-11-{3-[(diaminomethylidene)amino]propyl}-7-methyl-3,6,9,12,15-pentaoxo-8-(propan-2-yl)-1,4,7,10,13-pentaazacyclopentadecan-2-yl]acetic acid, reference compound]
half-life [2]: 3 to 5 h | maximum drug concentration (poor solubility) [3]: ≤ 15 mg/mL

GHRH: 44-amino acid peptide hormone (SEQ ID NO: 542)
half-life [4]: less than 15 minutes

B1: follistatin: protein encoded by the FST gene (protein, UniProt P19883 30-344, looked up)
Follistatin: GNCWLRQAKNGRCQVLYKTELSKEECCSTGRLSTSWTEEDVNDNTLFKWMIFNGGAPNCIPCKETCENVDCGPGKKCRMNKKNKPRCVCAPDCSNITWKGPVCGLDGKTYRNECALLKARCKEQPELEVQYQGRCKKTCRDVFCPGSSTCVVDQTNNAYCVTCNRICPEPASSEQYLCGNDGVTYSSACHLRKATCLLGRSIGLAYEGKCIKAKSCEDIQCTGGKKCLWDFKVGRGRCSLCDELCPDSKSDEPVCASDNATYASECAMKEAACSSGVLLEVKHSGSCNSISEDTEEEEEDEDQDYSFPISSILEW
terminal half-life [5]: over 2 hours

B2: conjugate GLP2-2G-XTEN (protein, part only; not given: added cysteine position, not shown: small tags and cut ends)
peptide, part: HGDGSFSDEMNTILDNLAARDFINWLIQTKITD
chain: GSPGSPAGSPTSTEEGTSESATPESGPGTSTEPSEGSAPGSPAGSPTSTEEGTSTEPSEGSAPGTSTEPSEGSAPGTSESATPESGPGSEPATSGSETPGSEPATSGSETPGSPAGSPTSTEEGTSESATPESGPGTSTEPSEGSAPGTSTEPSEGSAPGSPAGSPTSTEEGTSTEPSEGSAPGTSTEPSEGSAPGTSESATPESGPGTSTEPSEGSAPGTSESATPESGPGSEPATSGSETPGTSTEPSEGSAPGTSTEPSEGSAPGTSESATPESGPGTSESATPESGPGSPAGSPTSTEEGTSESATPESGPGSEPATSGSETPGTSESATPESGPGTSTEPSEGSAPGTSTEPSEGSAPGTSTEPSEGSAPGTSTEPSEGSAPGTSTEPSEGSAPGTSTEPSEGSAPGSPAGSPTSTEEGTSTEPSEGSAPGTSESATPESGPGSEPATSGSETPGTSESATPESGPGSEPATSGSETPGTSESATPESGPGTSTEPSEGSAPGTSESATPESGPGSPAGSPTSTEEGSPAGSPTSTEEGSPAGSPTSTEEGTSESATPESGPGTSTEPSEGSAPGTSESATPESGPGSEPATSGSETPGTSESATPESGPGSEPATSGSETPGTSESATPESGPGTSTEPSEGSAPGSPAGSPTSTEEGTSESATPESGPGSEPATSGSETPGTSESATPESGPGSPAGSPTSTEEGSPAGSPTSTEEGTSTEPSEGSAPGTSESATPESGPGTSESATPESGPGTSESATPESGPGSEPATSGSETPGSEPATSGSETPGSPAGSPTSTEEGTSTEPSEGSAPGTSTEPSEGSAPGSEPATSGSETPGTSESATPESGPGTSTEPSEGSAPGR
modifications: N-terminal alpha-amino group modified with sulfo-SMCC and linked to GLP2-Cys; added cysteine thiol linked through the sulfo-SMCC cross-linker (maleimide) to the N-terminal alpha-amino group of the XTEN chain
GPCR Ca2+ flux mobilization, EC50 [6]: 529 nM
